US11352405B2, “GLP-1/glucagon receptor agonists in the treatment of fatty liver disease and steatohepatitis” (SANOFI, priority 2017, dated 2022)
Starred links: 1 amine or outer side, 2 acyl side, 3 side chain; linkers in the order of their positions; H or OH if unused. Non-standard residues stand in square brackets, D forms with d. Groups on a side chain read outwards from the residue. No end group written: not given here. Stea = stearoyl, (S)-4-carboxy-4-octadecanoylamino-butyryl on Lys via γGlu; γGlu = O=C(O)[C@H](CCC(=O)[*:2])N[*:1]

Tests used:
[1] = test system: mice with AMLN-diet-induced NASH; test: murine diet-induced NASH model (AMLN diet), eight-week treatment; assay type: in vivo, C57BL/6J mice
Description: Test compounds were investigated in a mouse model of NASH (murine diet-induced NASH model) as described in Kristiansen et al (World Journal of Hepatology 2016, vol. 8, pp. 673-684). C57BL/6J mice were given ad libitum access to a diet (D09100301, Research Diet, United States) high in fat (40%, of these 18% trans-fat), carbohydrates (40%, of these 20% fructose) and cholesterol (2%) that has previously been described as AMLN diet ([…] et al., Am J Physiol Gastrointest Liver Physiol 2013, vol. 305, pp. G483-G495). A control group was kept on regular rodent chow (Altromin 1324, Brogaarden, Denmark). After 26 weeks on the diet, a liver biopsy was performed for histological assessment of NASH and fibrosis at baseline. For this purpose, about 100 mg liver tissue were collected from the left lateral lobe, fixed overnight in 4% paraformaldehyde, paraffin-embedded and sectioned (3 μm thickness). For histological assessment, sections were stained with hematoxylin, eosin or Sirius Red and followed by analysis with Visiomorph software (Visiopharm, Denmark). Histological scoring was performed by a pathologist blinded to the study. NAFLD activity score and fibrosis score were determined according to the clinical criteria outlined by Kleiner et al (Hepatology 2005, […], pp. 1313-1321). Animals were randomized into different treatment groups according to body weight and extent of fibrosis. Treatment period was eight weeks during which animals remained on the AMLN diet. Compounds were given by once-daily or twice-daily subcutaneous injection. Vehicle-treated animals on AMLN diet and non-treated animals on regular rodent chow were included as controls. Group sizes were between 8 and 14 animals. After treatment, terminal liver samples were collected and analysed as for the pre-biopsy. Dual-agonistic GLP1R/GCGR agonistic peptides were investigated in a murine model of NASH as described in the methods section. Treatment duration was eight weeks over which animals remained on the NASH-inducing AMLN diet. The GLP1R-specific agonist liraglutide (SEQ ID NO.: 4) was included as a reference compound. In the diet-induced murine NASH model, compounds were administered at the following doses (all via subcutaneous injections): SEQ ID NO.: 2 10 μg/kg b.i.d., SEQ ID NO.:3 30 μg/kg q.d. in comparison to liraglutide (SEQ ID NO.: 4) at 200 μg/kg q.d., SEQ ID NO.: 1 10 μg/kg b.i.d. or 30 μg/kg b.i.d. in comparison to liraglutide (SEQ ID NO.: 4) at 100 μg/kg b.i.d.

[2] = target: human glucagon receptor (Homo sapiens, UniProt P47871); test: binding to human glucagon receptor
Chain of human glucagon receptor (P47871 26-477): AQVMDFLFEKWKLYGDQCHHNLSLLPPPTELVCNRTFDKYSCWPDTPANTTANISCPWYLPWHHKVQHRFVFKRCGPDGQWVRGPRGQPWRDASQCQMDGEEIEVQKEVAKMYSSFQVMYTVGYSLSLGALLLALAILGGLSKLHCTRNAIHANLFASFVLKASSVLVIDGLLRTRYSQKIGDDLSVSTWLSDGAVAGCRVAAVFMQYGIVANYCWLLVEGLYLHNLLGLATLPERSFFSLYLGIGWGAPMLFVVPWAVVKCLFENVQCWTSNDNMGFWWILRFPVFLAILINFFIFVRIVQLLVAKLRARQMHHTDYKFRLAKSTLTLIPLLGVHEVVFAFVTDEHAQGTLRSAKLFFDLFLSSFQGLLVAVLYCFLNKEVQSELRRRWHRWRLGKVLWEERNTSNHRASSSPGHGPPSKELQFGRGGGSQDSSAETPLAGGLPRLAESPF

[3] = target: human GLP-1 receptor (Homo sapiens, UniProt P43220); test: binding to human GLP-1 receptor
Chain of human GLP-1 receptor (P43220 24-463): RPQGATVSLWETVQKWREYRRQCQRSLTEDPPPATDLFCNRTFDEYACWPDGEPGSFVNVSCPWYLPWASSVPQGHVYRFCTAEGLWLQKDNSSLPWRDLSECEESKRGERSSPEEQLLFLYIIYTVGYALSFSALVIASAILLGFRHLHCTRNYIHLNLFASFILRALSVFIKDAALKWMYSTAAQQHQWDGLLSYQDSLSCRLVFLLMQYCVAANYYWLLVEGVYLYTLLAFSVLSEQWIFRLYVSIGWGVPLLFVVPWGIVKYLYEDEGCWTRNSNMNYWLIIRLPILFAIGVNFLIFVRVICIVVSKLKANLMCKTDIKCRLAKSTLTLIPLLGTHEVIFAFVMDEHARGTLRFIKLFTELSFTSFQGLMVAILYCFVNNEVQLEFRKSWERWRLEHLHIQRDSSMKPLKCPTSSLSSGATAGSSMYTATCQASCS

[4] = 10 μg/kg b.i.d. s.c., eight weeks, AMLN diet mice (FIG. 1A study)
[5] = 10 μg/kg b.i.d. s.c., eight weeks, vehicle increased by 0.2 points
[6] = 30 μg/kg twice daily s.c., eight weeks, AMLN diet mice (FIG. 3A study)

Substance: H-dS-Q-G-T-F-T-S-D-L-S-K-Q-K(γE-Stea)-DEQLAKDFIEWLKAGGPSSGAPPPS-NH2 (H[dS]QGTFTSDLSKQK([γGlu-Stea])DEQLAKDFIEWLKAGGPSSGAPPPS-NH2) [SEQ ID NO.: 3, exendin-4 derivative of formula A, dual GLP-1/glucagon receptor agonist]
- weight loss vs baseline ([1]; 30 μg/kg q.d. s.c., eight weeks, AMLN diet mice (FIG. 2A study), vehicle gained 1.1 grams): 3.9 grams
- weight loss vs baseline (% of body weight) ([1]; 30 μg/kg q.d. s.c., eight weeks, AMLN diet mice (FIG. 2A study), vehicle gained 3.0%): 10.5%
- change in mean fibrosis score vs baseline ([1]; 30 μg/kg q.d. s.c., eight weeks, vehicle increased by 0.1 points): remained unchanged
- decrease in NAS vs baseline ([1]; 30 μg/kg q.d. s.c., eight weeks, vehicle increased by 0.8 points, p<0.001 vs vehicle, p<0.05 vs liraglutide): 1.6 points

Substance: H-dS-Q-G-T-F-T-S-D-L-S-K-Q-K(γE-Palm)-DSRRAQDFIEWLKNGGPSSGAPPPS-NH2 (HXQGTFTSDLSKQKDSRRAQDFIEWLKNGGPSSGAPPPS; D-Ser1; K14 γE-palmitoyl; C-terminal amide; Exendin-4 analogue; MOD_RES (2)..(2) Xaa is D-Ser; MOD_RES (14)..(14) Lys is functionalized at the amino side chain group as Lys((S)-4-carboxy-4-hexadecanoylamino-butyryl); MOD_RES (39)..(39) amidated C-terminus) [SEQ ID NO.: 2, exendin-4 derivative of formula A, dual GLP-1/glucagon receptor agonist]
- mean fibrosis stage after treatment ([1]; 10 μg/kg b.i.d. s.c., after eight weeks, baseline 1.2, vehicle group did not change): 0.6
- components of NAS (steatosis, inflammation and hepatocyte ballooning scores) ([1]; 10 μg/kg b.i.d. s.c., eight weeks (FIG. 1D)): reduction in score was seen for all three components of NAS
- weight loss vs vehicle [1, 4]: 4.9 grams
- weight loss vs vehicle, % of body weight at baseline [1, 4]: 13.5%
- weight loss vs baseline ([1]; 10 μg/kg b.i.d. s.c., eight weeks, AMLN diet mice (FIG. 1A study), vehicle gained 2.1 grams): 2.8 gram
- weight loss vs baseline (% of body weight) ([1]; 10 μg/kg b.i.d. s.c., eight weeks, AMLN diet mice (FIG. 1A study), vehicle gained 5.6%): 7.7%
- reduction in NAFLD activity score (NAS) vs baseline [1, 5]: 2.3 points

Substance: H-dS-Q-G-T-F-T-S-D-L-S-K-Q-K(γE-Palm)-ESKAAQDFIEWLKAGGPSSGAPPPS-NH2 (HXQGTFTSDLSKQKESKAAQDFIEWLKAGGPSSGAPPPS; D-Ser1; K14 γE-palmitoyl; C-terminal amide; Exendin-4 analogue; MOD_RES (2)..(2) Xaa is D-Ser; MOD_RES (14)..(14) Lys is functionalized at the amino side chain group as Lys((S)-4-carboxy-4-hexadecanoylamino-butyryl); MOD_RES (39)..(39) amidated C-terminus) [SEQ ID NO.: 1, exendin-4 derivative of formula A, dual GLP-1/glucagon receptor agonist]
- binding to human glucagon receptor [2]: good binding
- binding to human GLP-1 receptor [3]: good binding
- decrease in mean NAS vs baseline [1, 5]: 2.0 points
- weight loss vs baseline ([1]; 10 μg/kg twice daily s.c., eight weeks, AMLN diet mice (FIG. 3A study), vehicle gained 0.5 grams): 3.0 grams
- weight loss vs baseline (% of body weight) ([1]; 10 μg/kg twice daily s.c., eight weeks, AMLN diet mice (FIG. 3A study), vehicle gained 1.3%): 8.5%
- decrease in mean NAS vs baseline ([1]; 30 μg/kg b.i.d. s.c., eight weeks, vehicle increased by 0.2 points, p<0.05 vs liraglutide): 1.9 points
- weight loss vs baseline [1, 6]: 3.9 grams
- weight loss vs baseline (% of body weight) [1, 6]: 11.4%
- change in fibrosis vs baseline ([1]; both doses, 10 and 30 μg/kg b.i.d. s.c., eight weeks (FIG. 3E)): trend to an improvement in fibrosis
